Assay results reported in PubChem BioAssay AID2060495 (Molecular Pharmacology Branch, DTP, NCI, 2025).

System: 521955-158-R2-J5-PDC complex spheroid viability
Test: Anticancer human tumor 521955-158-R2-J5-PDC patient-derived pancreatic carcinoma cell line growth inhibition [GQUAD]
Conditions: for IC50: curve of first compound; for viability, T/C: stronger effect = lower value
Summary of the method: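 Viability of tumor cells grown as complex spheroids with endothelial and stromal cells, exposed to drug combinations. Top concentration at or near clinical Cmax (else 10 microM), diluted in half-log increments.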

[1] = second compound 0.0316 µM, first compound 0.0316 µM
[2] = second compound 0.0316 µM, first compound 0.1 µM
[3] = second compound 0.0316 µM, first compound 0.316 µM
[4] = second compound 0.0316 µM, first compound 1 µM
[5] = second compound 0.0316 µM, first compound 3.16 µM
[6] = second compound 0.0316 µM, first compound 10 µM
[7] = second compound 0.1 µM, first compound 0.0316 µM
[8] = second compound 0.1 µM, first compound 0.1 µM
[9] = second compound 0.1 µM, first compound 0.316 µM
[10] = second compound 0.1 µM, first compound 1 µM
[11] = second compound 0.1 µM, first compound 3.16 µM
[12] = second compound 0.1 µM, first compound 10 µM
[13] = second compound 0.316 µM, first compound 0.0316 µM
[14] = second compound 0.316 µM, first compound 0.1 µM
[15] = second compound 0.316 µM, first compound 0.316 µM
[16] = second compound 0.316 µM, first compound 1 µM
[17] = second compound 0.316 µM, first compound 3.16 µM
[18] = second compound 0.316 µM, first compound 10 µM
[19] = second compound 1 µM, first compound 0.0316 µM
[20] = second compound 1 µM, first compound 0.1 µM
[21] = second compound 1 µM, first compound 0.316 µM
[22] = second compound 1 µM, first compound 1 µM
[23] = second compound 1 µM, first compound 3.16 µM
[24] = second compound 1 µM, first compound 10 µM
[25] = second compound 3.16 µM, first compound 0.0316 µM
[26] = second compound 3.16 µM, first compound 0.1 µM
[27] = second compound 3.16 µM, first compound 0.316 µM
[28] = second compound 3.16 µM, first compound 1 µM
[29] = second compound 3.16 µM, first compound 3.16 µM
[30] = second compound 3.16 µM, first compound 10 µM
[31] = second compound 10 µM, first compound 0.0316 µM
[32] = second compound 10 µM, first compound 0.1 µM
[33] = second compound 10 µM, first compound 0.316 µM
[34] = second compound 10 µM, first compound 1 µM
[35] = second compound 10 µM, first compound 3.16 µM
[36] = second compound 10 µM, first compound 10 µM
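Note: spheroids exposed to agents for one week before reading.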
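Throughout, for viability, T/C: 100% = DMSO vehicle control viability.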

Compound `COc1cccc2c1C(=O)c1c(O)c3c(c(O)c1C2=O)CC(O)(C(=O)CO)CC3OC1CC(N)C(O)C(C)O1` (stereo unspecified) + Cc1cnc(CNC(=O)c2c(=O)c3ccc(N4CCCN(C)CC4)nc3n3c2sc2ccccc23)cn1 has an IC50 (second compound 0.0316 µM) of 113 nM, an IC50 (second compound 0.1 µM) of 127 nM and an IC50 (second compound 0.316 µM) of less than 31.6 nM. It also gave an IC50 (second compound 1 µM) of less than 31.6 nM, an IC50 (second compound 3.16 µM) of less than 31.6 nM and an IC50 (second compound 10 µM) of less than 31.6 nM. The viability, T/C [1] was 78.2%, the viability, T/C [2] was 48% and the viability, T/C [3] was 38.4%. The viability, T/C [4] was 10.9%, the viability, T/C [5] was 4.19% and the viability, T/C [6] was 0.5%. The viability, T/C [7] was 53.3%, the viability, T/C [8] was 59.6% and the viability, T/C [9] was 26.3%. It also gave a viability, T/C [10] of 10.6%, a viability, T/C [11] of 1.38% and a viability, T/C [12] of 0.74%. The viability, T/C [13] was 36.3%, the viability, T/C [14] was 37.1% and the viability, T/C [15] was 20.9%. For the same compound, the viability, T/C [16] was 8.92%, the viability, T/C [17] was 0.18% and the viability, T/C [18] was 0.39%. For the same compound, the viability, T/C [19] was 20.7%, the viability, T/C [20] was 20.1% and the viability, T/C [21] was 14.5%. For the same compound, the viability, T/C [22] was 8.17%, the viability, T/C [23] was 0.08% and the viability, T/C [24] was 0.07%. The viability, T/C [25] was 18.5%, the viability, T/C [26] was 18.4% and the viability, T/C [27] was 15%. The viability, T/C [28] was 5.89%, the viability, T/C [29] was 0.12% and the viability, T/C [30] was 0.13%. For the same compound, the viability, T/C [31] was 18.4%, the viability, T/C [32] was 14.4% and the viability, T/C [33] was 16.2%. The viability, T/C [34] was 4.97%, the viability, T/C [35] was 0.21% and the viability, T/C [36] was 0.19%.

`Nc1ccn(C2OC(CO)C(O)C2(F)F)c(=O)n1` (stereo unspecified) + Cc1cnc(CNC(=O)c2c(=O)c3ccc(N4CCCN(C)CC4)nc3n3c2sc2ccccc23)cn1 was tested, and the IC50 (second compound 0.0316 µM) was 159 nM, the IC50 (second compound 0.1 µM) was 85.7 nM and the IC50 (second compound 0.316 µM) was less than 31.6 nM. It also gave an IC50 (second compound 1 µM) of less than 31.6 nM, an IC50 (second compound 3.16 µM) of less than 31.6 nM and an IC50 (second compound 10 µM) of less than 31.6 nM. It also gave a viability, T/C [1] of 67.4%, a viability, T/C [2] of 63.6% and a viability, T/C [3] of 30.6%. It also gave a viability, T/C [4] of 12.9%, a viability, T/C [5] of 8.38% and a viability, T/C [6] of 8.43%. For the same compound, the viability, T/C [7] was 57.4%, the viability, T/C [8] was 51.2% and the viability, T/C [9] was 29%. It also gave a viability, T/C [10] of 20.9%, a viability, T/C [11] of 7.8% and a viability, T/C [12] of 7.55%. For the same compound, the viability, T/C [13] was 36%, the viability, T/C [14] was 27.7% and the viability, T/C [15] was 20.9%. For the same compound, the viability, T/C [16] was 12.8%, the viability, T/C [17] was 9.07% and the viability, T/C [18] was 7.49%. For the same compound, the viability, T/C [19] was 20.2%, the viability, T/C [20] was 19.9% and the viability, T/C [21] was 15.2%. The viability, T/C [22] was 9.52%, the viability, T/C [23] was 9.75% and the viability, T/C [24] was 8.51%. The viability, T/C [25] was 16%, the viability, T/C [26] was 17.8% and the viability, T/C [27] was 15.9%. The viability, T/C [28] was 8.29%, the viability, T/C [29] was 4.92% and the viability, T/C [30] was 2.37%. For the same compound, the viability, T/C [31] was 17%, the viability, T/C [32] was 15.7% and the viability, T/C [33] was 15.1%. For the same compound, the viability, T/C [34] was 6.25%, the viability, T/C [35] was 4.12% and the viability, T/C [36] was 5.49%.

With `O=c1[nH]cc(F)c(=O)[nH]1` + Cc1cnc(CNC(=O)c2c(=O)c3ccc(N4CCCN(C)CC4)nc3n3c2sc2ccccc23)cn1 the IC50 (second compound 0.0316 µM) was 1190 nM, the IC50 (second compound 0.1 µM) was 1540 nM and the IC50 (second compound 0.316 µM) was less than 31.6 nM. For the same compound, the IC50 (second compound 1 µM) was less than 31.6 nM, the IC50 (second compound 3.16 µM) was less than 31.6 nM and the IC50 (second compound 10 µM) was less than 31.6 nM. For the same compound, the viability, T/C [1] was 88.7%, the viability, T/C [2] was 70.5% and the viability, T/C [3] was 76.8%. It also gave a viability, T/C [4] of 51.6%, a viability, T/C [5] of 31.6% and a viability, T/C [6] of 16.7%. The viability, T/C [7] was 65.2%, the viability, T/C [8] was 56.2% and the viability, T/C [9] was 56.5%. The viability, T/C [10] was 62.2%, the viability, T/C [11] was 33.4% and the viability, T/C [12] was 22.4%. For the same compound, the viability, T/C [13] was 36.7%, the viability, T/C [14] was 56.3% and the viability, T/C [15] was 30.3%. For the same compound, the viability, T/C [16] was 31%, the viability, T/C [17] was 20.2% and the viability, T/C [18] was 17.8%. It also gave a viability, T/C [19] of 23.2%, a viability, T/C [20] of 22.5% and a viability, T/C [21] of 20.1%. It also gave a viability, T/C [22] of 16.6%, a viability, T/C [23] of 17.8% and a viability, T/C [24] of 14.1%. It also gave a viability, T/C [25] of 18.1%, a viability, T/C [26] of 19.5% and a viability, T/C [27] of 17.8%. For the same compound, the viability, T/C [28] was 19.1%, the viability, T/C [29] was 17% and the viability, T/C [30] was 11.7%. It also gave a viability, T/C [31] of 18.7%, a viability, T/C [32] of 21.7% and a viability, T/C [33] of 17.3%. The viability, T/C [34] was 14.2%, the viability, T/C [35] was 15.5% and the viability, T/C [36] was 12.1%.
